{"source": "patent US11987588B2", "about": "“Modulators of the beta-3 adrenergic receptor useful for the treatment or prevention of heart failure and disorders related thereto” (Arena Pharmaceuticals, Inc., priority 2017, dated 2024)"}
{"target": "Beta-3 Adrenergic Receptor (Homo sapiens (Human), UniProt P13945)", "sequence (P13945 whole entry, species assumed)": "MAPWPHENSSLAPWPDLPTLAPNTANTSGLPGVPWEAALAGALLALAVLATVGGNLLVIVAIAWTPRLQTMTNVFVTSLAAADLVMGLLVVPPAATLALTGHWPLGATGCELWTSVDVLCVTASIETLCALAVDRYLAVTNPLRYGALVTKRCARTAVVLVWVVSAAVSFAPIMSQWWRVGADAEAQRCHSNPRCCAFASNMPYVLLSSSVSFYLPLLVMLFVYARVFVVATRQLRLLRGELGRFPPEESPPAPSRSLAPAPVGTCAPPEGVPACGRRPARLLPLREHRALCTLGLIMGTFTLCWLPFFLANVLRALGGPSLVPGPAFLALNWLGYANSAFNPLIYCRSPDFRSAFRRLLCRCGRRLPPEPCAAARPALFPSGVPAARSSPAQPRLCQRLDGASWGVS", "test": "Homogeneous Time-Resolved Fluorescence (HTRF) cAMP antagonist assay, IC50 determination", "assay_type": "cell-based", "settings": "CHO-K1 cells stably expressing recombinant receptor, isoproterenol at EC90", "method_in_brief": "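In this functional readout, recombinant CHO-K1 cells received compound, then isoproterenol at its EC90. After 1 h at room temperature, cAMP levels were determined by HTRF using an on-plate standard curve, and IC50 values were fitted.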", "units": {"IC50": "nM"}}
{"molecule": "CNS(=O)(=O)c1cccc(OC[C@@H](O)CNC2COC3(CCN(S(=O)(=O)c4ccc(OC)cc4)CC3)C2)c1", "note": "(stereo partly drawn) [Compound 18, 3-((2S)-2-hydroxy-3-(8-(4-methoxyphenylsulfonyl)-1-oxa-8-azaspiro[4.5]decan-3-ylamino)propoxy)-N-methylbenzenesulfonamide]", "IC50": 20.8}
{"molecule": "C[C@@H](O)CNS(=O)(=O)c1cccc(OC[C@@H](O)CN[C@H]2COC3(CCN(S(=O)(=O)c4cnc5c(c4)N(C)CCO5)CC3)C2)c1", "note": "[Compound 436, 3-((S)-2-hydroxy-3-((R)-8-(1-methyl-2,3-dihydro-1H-pyrido[2,3-b][1,4]oxazin-7-ylsulfonyl)-1-oxa-8-azaspiro[4.5]decan-3-ylamino)propoxy)-N—((R)-2-hydroxypropyl)benzenesulfonamide]", "IC50": 367}
{"molecule": "CNS(=O)(=O)c1cccc(OC[C@@H](O)CN[C@@H]2COC3(CCN(S(=O)(=O)c4ccc(OC)c(C)c4)CC3)C2)c1", "note": "[Compound 266, 3-((S)-2-hydroxy-3-((S)-8-(4-methoxy-3-methylphenylsulfonyl)-1-oxa-8-azaspiro[4.5]decan-3-ylamino)propoxy)-N-methylbenzenesulfonamide]", "IC50": 24.7}
{"molecule": "CCNS(=O)(=O)c1cccc(OC[C@@H](O)CNC2COC3(CCN(S(=O)(=O)c4cccc(-c5ccc(CN)cc5)c4)CC3)C2)c1", "note": "(stereo partly drawn) [Compound 210, 3-((2S)-3-(8-(4′-(aminomethyl)biphenyl-3-ylsulfonyl)-1-oxa-8-azaspiro[4.5]decan-3-ylamino)-2-hydroxypropoxy)-N-ethylbenzenesulfonamide]", "IC50": 20.4}
{"molecule": "CNc1nc2c(cc1S(=O)(=O)N1CCC3(CC1)C[C@@H](NC[C@H](O)COc1cccc(S(=O)(=O)NC)c1)CO3)N(C)CCO2", "note": "[Compound 452, 3-((S)-2-hydroxy-3-((R)-8-(1-methyl-6-(methylamino)-2,3-dihydro-1H-pyrido[2,3-b][1,4]oxazin-7-ylsulfonyl)-1-oxa-8-azaspiro[4.5]decan-3-ylamino)propoxy)-N-methylbenzenesulfonamide]", "IC50": 25.7}
{"molecule": "CCOc1nc2c(cc1S(=O)(=O)N1CCC3(CC1)C[C@H](NC[C@H](O)COc1cccc(S(=O)(=O)NC)c1)CO3)N(C)CCO2", "note": "[Compound 450, 3-((S)-3-((S)-8-(6-ethoxy-1-methyl-2,3-dihydro-1H-pyrido[2,3-b][1,4]oxazin-7-ylsulfonyl)-1-oxa-8-azaspiro[4.5]decan-3-ylamino)-2-hydroxypropoxy)-N-methylbenzenesulfonamide]", "IC50": 28.2}
{"molecule": "CNS(=O)(=O)c1cccc(OC[C@@H](O)CNC2COC3(CCN(S(=O)(=O)c4ccc(Cl)cc4Cl)CC3)C2)c1", "note": "(stereo partly drawn) [Compound 158, 3-((2S)-3-(8-(2,4-dichlorophenylsulfonyl)-1-oxa-8-azaspiro[4.5]decan-3-ylamino)-2-hydroxypropoxy)-N-methylbenzenesulfonamide]", "IC50": 25.6}
{"molecule": "CC(=O)NS(=O)(=O)c1cccc(OC[C@@H](O)CNC2COC3(CCN(S(=O)(=O)c4ccc5ccccc5c4)CC3)C2)c1", "note": "(stereo partly drawn) [Compound 318, N-(3-((2S)-2-hydroxy-3-(8-(naphthalen-2-ylsulfonyl)-1-oxa-8-azaspiro[4.5]decan-3-ylamino)propoxy)phenylsulfonyl)acetamide]", "IC50": 2180}
{"molecule": "CNS(=O)(=O)c1cccc(OC[C@@H](O)CNC2COC3(CCN(S(=O)(=O)c4cc(-c5ccc(CN)cc5)ccc4OC)CC3)C2)c1", "note": "(stereo partly drawn) [Compound 357, 3-((2S)-3-(8-(4′-(aminomethyl)-4-methoxybiphenyl-3-ylsulfonyl)-1-oxa-8-azaspiro[4.5]decan-3-ylamino)-2-hydroxypropoxy)-N-methylbenzenesulfonamide]", "IC50": 15.7}
{"molecule": "CNS(=O)(=O)c1cccc(OC[C@@H](O)CNC2COC3(CCN(S(=O)(=O)c4cccc(-c5ccc(OCCCN(C)C)nc5)c4)CC3)C2)c1", "note": "(stereo partly drawn) [Compound 372, 3-((2S)-3-(8-(3-(6-(3-(dimethylamino)propoxy)pyridin-3-yl)phenylsulfonyl)-1-oxa-8-azaspiro[4.5]decan-3-ylamino)-2-hydroxypropoxy)-N-methylbenzenesulfonamide]", "IC50": 41.8}
{"molecule": "CNS(=O)(=O)c1cccc(OC[C@@H](O)CN[C@@H]2COC3(CCN(S(=O)(=O)c4cc(-c5ccc(CN)cc5)ccc4OC)CC3)C2)c1", "note": "[Compound 384, 3-((S)-3-((S)-8-(4′-(aminomethyl)-4-methoxybiphenyl-3-ylsulfonyl)-1-oxa-8-azaspiro[4.5]decan-3-ylamino)-2-hydroxypropoxy)-N-methylbenzenesulfonamide]", "IC50": 11}
{"molecule": "CNS(=O)(=O)c1cccc(OC[C@@H](O)CNC2COC3(CCN(S(=O)(=O)c4ccc(-c5ccc(F)cc5)cc4)CC3)C2)c1", "note": "(stereo partly drawn) [Compound 122, 3-((2S)-3-(8-(4′-fluorobiphenyl-4-ylsulfonyl)-1-oxa-8-azaspiro[4.5]decan-3-ylamino)-2-hydroxypropoxy)-N-methylbenzenesulfonamide]", "IC50": 34.1}
{"molecule": "CN(C)S(=O)(=O)c1cccc(OC[C@@H](O)CNC2COC3(CCN(S(=O)(=O)c4cccc(-c5ccc(N)nc5)c4)CC3)C2)c1", "note": "(stereo partly drawn) [Compound 275, 3-((2S)-3-(8-(3-(6-aminopyridin-3-yl)phenylsulfonyl)-1-oxa-8-azaspiro[4.5]decan-3-ylamino)-2-hydroxypropoxy)-N,N-dimethylbenzenesulfonamide]", "IC50": 21.3}
{"molecule": "CCn1cc(S(=O)(=O)N2CCC3(CC2)C[C@@H](NC[C@H](O)COc2cccc(S(=O)(=O)NC)c2)CO3)c(=O)c2cc(C)ccc21", "note": "[Compound 535, 3-((S)-3-((R)-8-(1-ethyl-6-methyl-4-oxo-1,4-dihydroquinolin-3-ylsulfonyl)-1-oxa-8-azaspiro[4.5]decan-3-ylamino)-2-hydroxypropoxy)-N-methylbenzenesulfonamide]", "IC50": 43.9}
{"molecule": "CCCn1cc(S(=O)(=O)N2CCC3(CC2)C[C@@H](NC[C@H](O)COc2cccc(S(N)(=O)=O)c2)CO3)c(=O)c2ccccc21", "note": "[Compound 551, 3-((S)-2-hydroxy-3-((R)-8-(4-oxo-1-propyl-1,4-dihydroquinolin-3-ylsulfonyl)-1-oxa-8-azaspiro[4.5]decan-3-ylamino)propoxy)benzenesulfonamide]", "IC50": 74.7}
{"molecule": "CCC(C)(C)c1ccc(S(=O)(=O)N2CCC3(CC2)CC(NC[C@H](O)COc2cccc(S(=O)(=O)NC)c2)CO3)cc1", "note": "(stereo partly drawn) [Compound 120, 3-((2S)-2-hydroxy-3-(8-(4-tert-pentylphenylsulfonyl)-1-oxa-8-azaspiro[4.5]decan-3-ylamino)propoxy)-N-methylbenzenesulfonamide]", "IC50": 36.4}
{"molecule": "CNS(=O)(=O)c1cccc(OC[C@@H](O)CNC2COC3(CCN(S(=O)(=O)c4cc(Br)ccc4OC)CC3)C2)c1", "note": "(stereo partly drawn) [Compound 220, 3-((2S)-3-(8-(5-bromo-2-methoxyphenylsulfonyl)-1-oxa-8-azaspiro[4.5]decan-3-ylamino)-2-hydroxypropoxy)-N-methylbenzenesulfonamide]", "IC50": 19.1}
{"molecule": "CC(C)CCNS(=O)(=O)c1cccc(OC[C@@H](O)CNC2COC3(CCN(S(=O)(=O)c4ccc5ccccc5c4)CC3)C2)c1", "note": "(stereo partly drawn) [Compound 98, 3-((2S)-2-hydroxy-3-(8-(naphthalen-2-ylsulfonyl)-1-oxa-8-azaspiro[4.5]decan-3-ylamino)propoxy)-N-isopentylbenzenesulfonamide]", "IC50": 71.1}
{"molecule": "CNS(=O)(=O)c1cccc(OC[C@@H](O)CN[C@@H]2COC3(CCN(S(=O)(=O)c4cccc(-c5cccnc5)c4)CC3)C2)c1", "note": "[Compound 284, 3-((S)-2-hydroxy-3-((S)-8-(3-(pyridin-3-yl)phenylsulfonyl)-1-oxa-8-azaspiro[4.5]decan-3-ylamino)propoxy)-N-methylbenzenesulfonamide]", "IC50": 11.6}
